Measurements reported in patent US11684598B2, “Use of cannabinoids in the treatment of epilepsy” (priority 2015, dated 2023).

Columns and labels:
[1] = system: D. discoideum cell growth; test: D. discoideum growth assay; type: cell-based, Dictyostelium discoideum
Procedure: Wild type (A×2) D. discoideum cells were grown in shaking culture (in HL5 medium) for two days prior to growth assays. Cells (9900 in 495 μl of media) were added to each well of a 24 well plate and 5 μl of cannabinoid in DMSO (or DMSO only) was added to each well to achieve each described concentration (1% final DMSO concentration), and cells were maintained at 22° C. Cells were counted at 72 hours, and then every 24 hours. Quadruplicate repeats were used for each concentration.

seizures [2] = conditions: mice, after pro-convulsant drugs or an electric current; cited from earlier work
seizures [3] = conditions: 200 mg/day pure CBD, twelve institutionalized adult patients, open label; cited from earlier work
generalized epilepsy = conditions: eight adult patients with generalized epilepsy; cited from earlier work
[4] = system: PTZ-induced generalised seizures; test: Acute PTZ-induced model of generalised seizure; type: in vivo, rat
Procedure: Adult male Wistar Kyoto rats were used in the acute PTZ model of seizure (>P24, 70-110 g). Animals were housed five per cage in a heat regulated room (21° C.) on a 12:12 h day/night cycle (lights on 0800) in 50% humidity and given ad libitum access to standard laboratory chow (PCD Mod C, Special Diet Services, Wiltham, UK) and water. All procedures were undertaken during white light hours.
A PTZ (Sigma-Aldrich, Poole, UK) stock solution was made in 0.9% w/v NaCl for the experimental procedure.
PTZ antagonises GABA inhibition via binding to the t-butyl-bicycl-phosphorothionate site of GABAA receptors. Moreover, this chemically-induced model can be indicative of effects against absence seizures. PTZ (90 mg/kg) was used to induce seizures in adult male Wistar rats (n=15 per group) with experiment dose randomised using a Latin square design. Animals were placed in their 6 L Perspex tanks and allowed to acclimatise to their environment for 10 min, before receiving one of the cannabinoid doses (see Table 5) in vehicle, or volume-matched dose of vehicle alone to serve as a negative control. 60 min after test compound or vehicle administration, animals were injected with PTZ (90 mg/kg, i.p.) to induce seizures and animal behaviour was recorded for 30 min.
Videos of PTZ-induced seizures were scored offline with a standard seizure severity scale appropriate for generalised seizures (Table 6).
Videos of seizure behaviour generated from the custom built observational system were scored offline according to seizure scales appropriate for PTZ model (Table 6) using Observer Video-Pro software (Noldus, Wageningen, The Netherlands). For the PTZ model of seizure, intra- and inter-observer agreements of behaviour scoring were assessed using the reliability analysis function of the observer Video-Pro software: 1 s tolerance window; Cohen's Kappa coefficient≥0.95.
Specific markers of seizure behaviour and development were assessed and compared between vehicle control and drug groups. The latency (s) to seizure onset and the percentage of animals that developed tonic-clonic seizures was noted (see Table 6). In addition, the maximum seizure severity and the percentage mortality in each group were determined for the acute PTZ model of generalised seizure.
The effect of drug on latency to seizure onset and maximum seizure severity were assessed using Krustal-Wallis with post-hoc Mann-Whitney U-tests. Drug effects on the percentage of animals that developed tonic-clonic seizures and percentage mortality were assessed using Chi-squared with post-hoc Fisher exact tests. In all cases, P≤0.05 was considered significant.

C=C(C)[C@@H]1CCC(C)=C[C@H]1c1c(O)cc(CCCCC)cc1O [CBD, Cannabidiol]
IC50 ([1]; Dictyostelium discoideum, secondary plot of cell density at 144 hours, read-out: growth inhibitory constant (IC50)): 1630 nM
concentration blocking growth ([1]; growth over one week): 20 µM
concentration significantly inhibiting cell growth (P<0.05) ([1]; growth over one week): 0.5 µM
prevention of seizures (seizures [2]): able to prevent seizures in mice
control of seizures (seizures [3]): ineffective in controlling seizures
reduction of seizures (generalized epilepsy): marked reduction of seizures in 4 of the patients
effect on percentage mortality ([4]; 100 mg/kg CBD (P≤0.01), 100 mg/kg CBDA (P=0.0656), CBD/CBDA ratio (P=0.0656)): significantly reduced
effect on latency to seizure onset ([4]; 100 mg/kg CBD (P≤0.05), CBD/CBDA 9:1 (P≤0.05), CBDA 100 mg/kg (P=0.0929)): significantly increasing latency to onset
median score for the maximum seizure severity ([4]; 100 mg/kg, PTZ 90 mg/kg i.p. 60 min after compound, scale of Table 6, n=15): 5
